We go through four molecules from US11712439B2, “Methods and materials for identifying and treating bet inhibitor-resistant cancers” (Mayo Foundation for Medical Education and Research, priority 2017, dated 2023).

Molecules are shown by their SMILES. Where a SMILES comes first, the peptide text is derived from it. The star is where a group is joined. Cbz = O=C(OCc1ccccc1)*

One test concerns solid tumors. The note with it: patients with solid tumors (Saura et al. 2017); cited from earlier work.
The test system of the next test is C4-2 cells. Nature of the test: Cell proliferation assay (MTS) and trypan blue assay, C4-2 cells. Format: cell-based, human. As to conditions: SPOP-F133V C4-2 cells, GDC-0068 0.2 μM with JQ1 0.25 μM, 5 days. The procedure:
CellTiter 96® AQueous One Solution Cell Proliferation Assay (MTS) (Promega) was used to measure cell growth according to the manufacturer's instructions. Briefly, cells were plated in 96-well plates at a density of 2,000 cells per well. At the indicated times, 20 μL of Cell Titer 96R Aqueous One Solution Reagent was added to medium. After incubating for 1 hour at 37° C. in the cell incubator, cell growth was measured in a microplate reader at 490 nm.
Trypan blue assay was performed to measure cell growth according to the manufacturer's instructions. Briefly, cells were plated in 6-well plates at a density of about 5×10^4 to about 1×10^5 cells per well. At the indicated time points, cells were trypsinized and suspended in 1 mL 1×PBS. 100 μL cells and 100 μL trypan blue solution (Sigma-Aldrich) were mixed, and the number of viable cells was measured using the Bio-Rad automated cell counter.

Another test concerns C4-2 xenograft tumors. The test can be described thus: Prostate cancer xenografts in mice, tumor volume. Format: in vivo. As to conditions: SPOP-F133V C4-2 xenografts, GDC-0068 100 mg/kg with JQ1 50 mg/kg, 5 days a week, day 21. The procedure: 6-week-old NOD-SCID IL-2-receptor gamma null (NSG) mice were generated and randomly divided into different experimental groups as indicated. All mice were housed in standard conditions with a 12-hour light/dark cycle and access to food and water ad libitum. For BRD2/3/4 knockdown studies, C4-2 cells (5×10^6), infected with lentivirus expressing empty vector (EV) or HA-SPOP-F133V mutant in combination with control shRNA or BRD2/3/4-specific shRNA, were mixed with Matrigel (in 100 μL 1×PBS plus 100 μL Matrigel (BD Biosciences)) and injected s.c. into the right flank of mice. […] Growth in tumor volume was measured in a blinded fashion using digital caliper, and tumor volumes were estimated using the formula (L×W2)/2, where L is length of tumor and W is width. The volumes of tumors were compared, and P values were determined by a two-tailed Student's t test. Upon the completion of treatment, tumor grafts were harvested. Tumor tissues were divided, and a portion was subjected to FFPE. the rest was frozen for protein and RNA extraction.

Another test has as its system AKT-mTORC1 pathway. Nature of the test: Western blot of AKT and S6K phosphorylation in C4-2 cells. In kind it is cell-based, human. The note with it: SPOP-F133V C4-2 cells, GDC-0068 1 μM, 24 hours. The procedure:
(§1) Cell lysates or immunoprecipitates were subjected to SDS-PAGE, and proteins were transferred to nitrocellulose membranes (GE Healthcare Sciences). The membranes were blocked in Tris-buffered saline (TBS, pH 7.4) containing 5% non-fat milk and 0.1% Tween-20, washed twice in TBS containing 0.1% Tween-20, and incubated with primary antibody overnight at 4° C., followed by secondary antibody for 1 hour at room temperature. The proteins of interest were visualized using ECL chemiluminescence system (Santa Cruz Biotechnology). Densitometry analysis of protein bands was analyzed on the Gel-Pro Analyzer software.

The test system of a further test is BRD2/3/4. The test can be described thus: Western blot and RT-qPCR of BRD2/3/4 in inhibitor-treated LNCaP cells. Format: cell-based, human. The note with it: 8 hours, Bortezomib 200 nM, MG132 20 μM; for BRD2/3/4 protein level: MLN4924 200 nM. The procedure: as §1
Total RNA was isolated from transiently transfected cells using the Trizol reagent (Thermo Fisher Scientific), and cDNA was reverse-transcribed using the Superscript RT kit (TOYOBO, Japan) according to the manufacturer's instructions. PCR amplification was performed using the SYBR Green PCR master mix Kit (TOYOBO, Japan). All quantization was normalized to the level of endogenous control GAPDH. The primer sequences for the SYBR green qPCR used were as follows: BRD2-F: 5′-[…]-3′ (SEQ ID NO:10); BRD2-R: 5′-[…]-3′ (SEQ ID NO:11); BRD3-F: 5′-[…]-3′ (SEQ ID NO:12); BRD3-R: 5′-[…]-[…]-3′ (SEQ ID NO:13); BRD4-F: 5′-[…]-GAG-3′ (SEQ ID NO:14); BRD4-F: 5′-[…]-3′ (SEQ ID NO:15); RAC1-F: 5′-[…]-3′ (SEQ ID NO:16); RAC1-R: 5′-[…]-3′ (SEQ ID NO:17); FDFT1-F: 5′-ACTAT-[…]-3′ (SEQ ID NO:18); FDFT1-R: 5′-[…]-[…]-3′ (SEQ ID NO:19); DHCR24-F: 5′-[…]-GAGC-3′ (SEQ ID NO:20); DHCR24-R: 5′-[…]-3′ (SEQ ID NO:21); DHCR7-F: 5′-[…]-3′ (SEQ ID NO:22); DHCR7-R: 5′-[…]-3′ (SEQ ID NO:23); MVD-F: 5′-[…]-3′ (SEQ ID NO:24); MVD-R: 5′-CACAC-[…]-3′ (SEQ ID NO:25); PSA-F: 5′-[…]-[…]-3′ (SEQ ID NO:26); PSA-R: 5′-[…]-3′ (SEQ ID NO:27); TMPRSS2-F: 5′-[…]-3′ (SEQ ID NO:28); TMPRSS2-R: 5′-[…]-3′ (SEQ ID NO:29); MYC-F: 5′-[…]-3′ (SEQ ID NO:30); MYC-R: 5′-CTTGT-[…]-3′ (SEQ ID NO:31); AR-F: 5′-[…]-TCACC-3′ (SEQ ID NO:32); AR-R: 5′-[…]-3′ (SEQ ID NO:33); GAPDH-F: 5′-[…]-3′ (SEQ ID NO:34); and GAPDH-R: 5′-[…]-3′ (SEQ ID NO:35).

In a further test the test system is BRD2/3/4 proteins. The test can be described thus: Western blot of 293T cells transfected with SPOP and BRD2/3/4, with or without MG132. In kind it is cell-based, human. As to conditions: 20 μM MG132 for 8 hours. As to the method:
as §1

Regarding `CC(C)NC[C@@H](C(=O)N1CCN(c2ncnc3c2[C@H](C)C[C@H]3O)CC1)c1ccc(Cl)cc1` [GDC-0068], the “Antitumor efficacy in patients” value in the test on solid tumors is on record as “effective antitumor efficacy”. Besides, in the test with C4-2 cells, the “SPOP mutation-conferred resistance to BET inhibitor, cells in culture” value is “completely overcame”. In addition, in the test with C4-2 xenograft tumors, the “SPOP mutation-conferred resistance to BET inhibitor, tumors in mice” value is listed as “completely overcame”. Also, in the test with AKT-mTORC1 pathway, the “SPOP mutation-induced activation of AKT downstream pathways” value is reported as “abolished”.
In the case of `NS(=O)(=O)OC[C@@H]1C[C@@H](n2ccc3c(N[C@H]4CCc5ccccc54)ncnc32)C[C@@H]1O` [MLN4924], in the test with BRD2/3/4, the BRD2/3/4 protein level entry is “caused accumulation of BRD2/3/4 at protein level”.
For `CC(C)C[C@H](NC(=O)[C@H](Cc1ccccc1)NC(=O)c1cnccn1)B(O)O` [Bortezomib], in the test on BRD2/3/4, the “BRD2/3/4 mRNA expression” value is listed as “not mRNA expression” and the BRD2/3/4 protein level result was “increased BRD2/3/4 protein”.
With `CC(C)C[C@@H](C=O)NC(=O)[C@H](CC(C)C)NC(=O)[C@H](CC(C)C)NC(=O)OCc1ccccc1` [MG132] (Cbz-Leu-Leu-Leu-aldehyde), the “Effect on the decrease of BRD2/3/4 proteins caused by wild-type SPOP” value with BRD2/3/4 proteins is listed as “completely reversed”. In the test with BRD2/3/4, the “BRD2/3/4 mRNA expression” value was “not mRNA expression” and the BRD2/3/4 protein level entry is “increased BRD2/3/4 protein”.
